Results as given in the NIST ThermoML archive (doi:10.1021/acs.jced.9b00021).
Where “and” joins values, the source holds several entries; their conditions need not be identical. Equal values may be shown once. ± gives the expanded uncertainty stated by the source.

Details: 400 kPa, Liquid, Concentric cylinders viscometry

CN(CCO)CCO [N-methyldiethanolamine]
viscosity (298.15 K): 73.1 ± 0.58 mPa·s
viscosity (303.15 K): 55.89 ± 0.39 mPa·s
viscosity (308.15 K): 43.45 ± 0.35 mPa·s
viscosity (313.15 K): 34.15 ± 0.3 mPa·s
viscosity (318.15 K): 27.15 ± 0.27 mPa·s
viscosity (323.15 K): 21.82 ± 0.24 mPa·s
viscosity (328.15 K): 17.79 ± 0.23 mPa·s
viscosity (333.15 K): 14.63 ± 0.22 mPa·s
viscosity (338.15 K): 12.2 ± 0.21 mPa·s
viscosity (343.15 K): 10.21 ± 0.21 mPa·s
viscosity (348.15 K): 8.61 ± 0.21 mPa·s and 8.6 ± 0.21 mPa·s
viscosity (353.15 K): 7.31 ± 0.21 mPa·s
viscosity (358.15 K): 6.28 ± 0.2 mPa·s and 6.29 ± 0.2 mPa·s
viscosity (363.15 K): 5.43 ± 0.2 mPa·s
viscosity (368.15 K): 4.72 ± 0.2 mPa·s
viscosity (373.15 K): 4.12 ± 0.2 mPa·s
